Test results as given in article PMC10388363, “Novel 1,4-Dihydropyridines as Specific Binders and Activators of SIRT3 Impair Cell Viability and Clonogenicity and Downregulate Hypoxia-Induced Targets in Cancer Cells” (Journal of Medicinal Chemistry, 2023).
Read-outs that look alike come from different tables or passages of the source.

Tests used:
[1] = tested on: acK68- and acK122-MnSOD in CAL-62 cells; test: Western blot of MnSOD acK68 and acK122 marks in CAL-62 cells; type: cell-based; details: 50 μM, 4 h, CAL-62
Method: (§1) K68-MnSOD acetylation promotes a transformation-permissive phenotype, leading to a chemotherapy-resistant breast cancer cell model using cisplatin and doxorubicin.[68] […] The specific SIRT3 inhibitor 3-TYP was utilized as negative control.
(§2) Breast cancer cell line MDA-MB-231, anaplastic thyroid cancer cell line CAL-62 and human keratinocytes HaCaT were purchased from ATCC and were cultured in RPMI 1640 medium (R0883 Sigma Aldrich-MERCK) (MDA-MB-231 and CAL-62) or DMEM medium (11965092, Gibco) supplemented with 10% fetal bovine serum (Sigma-Aldrich-MERCK, F9665), 2 mM glutamine (G7513; Sigma-Aldrich-MERCK), 100 units/mL penicillin and 0.1 mg/mL streptomycin (P0781; Sigma-Aldrich-MERCK). Adherent cells were detached by Trypsin–EDTA solution (TA049; Sigma-Aldrich-MERCK). Cells were maintained at 37 °C in humidified incubator with 5% CO2. Cells were treated with […] (CoCl2) (Merck; C8661) dissolved in distilled, sterile water for 24 h to induce hypoxia (200 μM). […]
(§3) Treated and untreated cells were collected and centrifuged at 3000 rpm for 5 min. […] Protein concentration was determined by the Bradford assay (Bio-Rad; 500-0205). […] After three more washes in PBST, the detection of the relevant protein was assessed by enhanced chemiluminescence (Lite Ablot TURBO, Euro-Clone; EMP012001). […]

MDA-MB-231 cells = test: Cell viability / cell death, trypan blue exclusion, MDA-MB-231; type: cell-based, human
[2] = tested on: acK68- and acK122-MnSOD in MDA-MB-231 cells; test: Western blot of MnSOD acK68 and acK122 marks in MDA-MB-231 cells; type: cell-based, human; details: 4 h, MDA-MB-231
Method: as §1, §2
The following antibodies were used in this study: ACTB (Merck; A5316), HIF1-α (Cell Signaling; 14179), HIF2/EPAS-1 (Santa Cruz Biotechnology sc-13596), HXKII (Santa Cruz Biotechnology sc-6521), CAIX (Novus Biotechnology NB100-417), SIRT3 (Cell Signaling; 2627S), MnSOD (Abcam ab13533), MnSOD K68 (Abcam ab137037), MnSOD K122 (Abcam ab214675), peroxidase-conjugated AffiniPure Goat Anti-Rabbit IgG (H + L) (Jackson ImmunoResearch; 111-035-003), and peroxidase-conjugated AffiniPure Goat Anti-Mouse IgG (H + L) (Jackson ImmunoResearch; 115-035-062).
as §3

[3] = Cell viability / cell death in healthy HaCaT cells; type: cell-based, human; details: human, HaCaT cells (healthy keratinocytes), HaCaT
Method: Breast cancer cell line MDA-MB-231, anaplastic thyroid cancer cell line CAL-62 and human keratinocytes HaCaT were purchased from ATCC and were cultured in RPMI 1640 medium (R0883 Sigma Aldrich-MERCK) (MDA-MB-231 and CAL-62) or DMEM medium (11965092, Gibco) supplemented with 10% fetal bovine serum (Sigma-Aldrich-MERCK, F9665), 2 mM glutamine (G7513; Sigma-Aldrich-MERCK), 100 units/mL penicillin and 0.1 mg/mL streptomycin (P0781; Sigma-Aldrich-MERCK). Adherent cells were detached by Trypsin–EDTA solution (TA049; Sigma-Aldrich-MERCK). Cells were maintained at 37 °C in humidified incubator with 5% CO2. Cells were treated with […] (CoCl2) (Merck; C8661) dissolved in distilled, sterile water for 24 h to induce hypoxia (200 μM). […] SIRT3 inhibitor 3-TYP was dissolved in DMSO and added to a final concentration of 1 μM for 24 and/or 48 h.
Cell viability was assessed by the trypan blue exclusion assay. At the end of treatments, cells were harvested and stained with 0,4% trypan blue (Merck; T8154). The cell suspension was applied to a hemocytometer and counted with phase contrast microscopy (NIKON EclipseTE2000U, Nikon Netherlands, Amsterdam, The Netherlands).

In the case of CCOC(=O)C1=CN(C(=O)c2cc(OC)cc(OC)c2)C=C(C(=O)OCC)C1c1ccccc1 [Compound 3d, Diethyl 1-(3,5-dimethoxybenzoyl)-4-phenyl-1,4-dihydropyridine-3,5-dicarboxylate], the “ratio acK68- or acK122-MnSOD/MnSOD” value [1] is reported as “decrease”, the viability at 5 µM (MDA-MB-231 cells; Homo sapiens, MDA-MB-231, 5 μM, 24 h, read-out: Cell viability (%) T24) is reported as 74.1% and the viability at 5 µM (MDA-MB-231 cells; Homo sapiens, MDA-MB-231, 5 μM, 48 h, read-out: Cell viability (%) T48) is reported as 51.7%. The viability at 10 µM (MDA-MB-231 cells; Homo sapiens, MDA-MB-231, 10 μM, 24 h, read-out: Cell viability (%) T24) was 56.2%, the viability at 25 µM (MDA-MB-231 cells; Homo sapiens, MDA-MB-231, 25 μM, 24 h, read-out: Cell viability (%) T24) was 42.8% and the viability at 25 µM (MDA-MB-231 cells; Homo sapiens, MDA-MB-231, 25 μM, 48 h, read-out: Cell viability (%) T48) was 21.1%. For the same compound, the “Cell death (%) T24” value (MDA-MB-231 cells; MDA-MB-231, 5 μM, 24 h) was 25,9%, the “Cell death (%) T48” value (MDA-MB-231 cells; MDA-MB-231, 5 μM, 48 h) was 48,3% and the “Cell death (%) T24” value (MDA-MB-231 cells; MDA-MB-231, 10 μM, 24 h) was 43,8%. For the same compound, the “Cell death (%) T24” value (MDA-MB-231 cells; MDA-MB-231, 25 μM, 24 h) was 57,2%, the “Cell death (%) T48” value (MDA-MB-231 cells; MDA-MB-231, 25 μM, 48 h) was 78,8% and the acK122-MnSOD deacetylation ([2]; 10 μM) was “significant acK122 deacetylation”. The “ratio acK68- or acK122-MnSOD/MnSOD” value ([2]; 50 μM) was “decrease”, the viability at 24 h, 5 µM ([3]; 5 μM, 24 h, read-out: Cell viability (%) T24) was 96.1% and the viability at 48 h, 5 µM ([3]; 5 μM, 48 h, read-out: Cell viability (%) T48) was 83.9%. The viability at 24 h, 10 µM ([3]; 10 μM, 24 h, read-out: Cell viability (%) T24) was 91.6%, the viability at 48 h, 10 µM ([3]; 10 μM, 48 h, read-out: Cell viability (%) T48) was 66.1% and the viability at 24 h, 25 µM ([3]; 25 μM, 24 h, read-out: Cell viability (%) T24) was 84.7%. It also gave a viability at 48 h, 25 µM ([3]; 25 μM, 48 h, read-out: Cell viability (%) T48) of 52.7%.
